Test results as given in US6361788B1, “Synergistic biocide composition” (Thor Chemie GmbH, priority 1997, dated 2002).
“And” between values parts separate entries of the source, which are not always exact repeats. Equal values may be shown once.

Experiments:
Format in all cases: cell-based
[1] = system: Penicillium funiculosum; test: MIC and synergy of MIT/BIT (1:1) and IPBC in Sabouraud maltose broth, 72 h
Protocol: (§1) In all the examples in which an active substance mixture of MIT and BIT as well as additionally a further active biocidal substance was used, the weight ratio of MIT to BIT was 1:1.
(§2) The synergy index is calculated according to the method of F. C. Kull et al., Applied Microbiology, Vol. 9 (1961), p. 538. Here the synergy index is calculated using the following formula:
(§3) Synergy index SI=Qa/QA+Qb/QB.
The synergy of an active substance mixture that contains IPBC in addition to MIT and BIT, against the microorganism Penicillium funiculosum is shown as in Example 1.
(§4) The test batches contained a Sabouraud maltose broth as a nutrient medium. The spore concentration was 10^6 per mL. The incubation time was 72 h at 25° C. Each sample was incubated on an incubation shaker at 120 rpm.

[2] = system: Aspergillus niger; test: as above
Protocol: as §1, §2, §3
The synergy of an active substance mixture that contains 3-iodo-2-propinyl-N-butyl carbamate (IPBC) in addition to MIT and BIT, against the microorganism Aspergillus niger is shown as in Example 1.
as §4

[3] = system: standard bacterial inoculum; test: Preservation of coating composition A, repeated bacterial inoculation, streak evaluation; design: key: 0: no growth; minimal growth up to 10 colonies; 2: slight growth up to 100 colonies; moderate growth up to 300 colonies; 4: uniform growth, single colonies still discernible; 5: strong growth, too many colonies to count, but not covering entire surface; 6: extensive growth, almost no individual colonies, total streak surface overgrown
Description: Biocide compositions according to the invention were incorporated into a coating composition A that is used for coating building facades. This coating composition is a plaster based on an aqueous polymer dispersion commercially available under the designation “Granol KR 3.0” (company Steinwerke Kupferdreh GmbH). The addition of the biocide composition of the invention served to preserve the coating composition before its use, i.e., while it was stored in its packing drums.
(§5) The biocides shown in Table XI below were added respectively to 50 g of coating composition A. The stated amounts of biocide refer to the amount of coating composition A. In the MIT/BIT mixtures, the two biocides were present in a weight ratio of 1:1.
(§6) Apart from a blank test without addition of biocide, 1 mL of a standard bacterial inoculum that contained the following bacterial strains was added to each sample of coating composition A:
(§7) The cell density of the inoculum was 10^10 to 3·10^10 cells/mL, and the cell density of the samples was 2·10^8 to 6·10^8 cells/g. The samples were held at 30° C. for 7 days. Then a streak of each sample was produced on a nutrient agar plate, held at 30° C. for 48 h, and then evaluated for bacterial growth. The following evaluation scale was used:
(§8) When the bacterial growth was evaluated as below 6, a second bacterial inoculum of the above-mentioned type was added to the corresponding original 50 g sample and it was again held at 30° C. for 7 days. Then a streak was again produced on a nutrient agar plate, which was again evaluated for its bacterial growth after a holding time of 48 h at 30° C.
(§9) When the bacterial growth of the streak was evaluated as 6 for a sample, the testing of this sample was terminated. As long as a sample had not reached this number, a bacterial inoculum was again added in the above-mentioned manner and the sample was held and tested by means of a streak. This procedure was repeated as necessary, with a maximum of 4 bacterial inocula being added per sample.

[4] = system: Penicillium funiculosum; test: MIC and synergy of MIT and BIT in Sabouraud maltose broth, 96 h
Protocol: as §2, §3
The synergy of the two active substances MIT and BIT against the microorganism Penicillium funiculosum is shown as in Example 1.
(§10) The test batches contained a Sabouraud maltose broth as a nutrient medium. The spore concentration was 10^6 per mL. The incubation time was 96 h at 25° C. Each sample was incubated on an incubation shaker at 120 rpm.

[5] = system: Aspergillus niger; test: as above
Protocol: as §2, §3
The synergy of the two active substances MIT and BIT against the microorganism Aspergillus niger is shown as in Example 1.
as §10

[6] = system: standard bacterial inoculum; test: Preservation of coating composition B, repeated bacterial inoculation, streak evaluation; design: key to Bacterial growth (7 days + 48 h after 4th inoculation): 0: no growth; minimal growth up to 10 colonies; 2: slight growth up to 100 colonies; moderate growth up to 300 colonies; 4: uniform growth, single colonies still discernible; 5: strong growth, too many colonies to count, but not covering entire surface; 6: extensive growth, almost no individual colonies, total streak surface overgrown
Protocol: as §5, §6, §7, §8, §9
Example 9 was repeated, but using coating composition B instead of coating composition A.
Coating composition B is a particularly low-emission plaster based on a polymer dispersion commercially available under the designation “Granol KR 3.0 LF” (company Steinwerke Kupferdreh GmbH).

[7] = system: Pseudomonas stutzeri; test: MIC and synergy of MIT and BIT in Müller-Hinton broth, 72 h; conditions: for growth of the microorganism: BIT 0 ppm, MIT ppm = row head c0; for growth of the microorganism: key: growth of the microorganism took place (symbol '+'); or not (symbol '−')
Protocol: as §2, §3
The synergy of MIT and BIT against the microorganism Pseudomonas stutzeri is shown as in Example 1.
(§11) The test batches again contained a Müller-Hinton broth as a nutrient medium. The cell density was 10^6 cells/mL. The incubation time was 72 h at 25° C. Each sample was incubated on an incubation shaker at 120 rpm.

[8] = system: Klebsiella pneumoniae; test: as above; conditions: for growth of the microorganism: BIT 0 ppm, MIT ppm = row head c0; for growth of the microorganism: key: growth of the microorganism took place (symbol '+'); or not (symbol '−')
Protocol: as §2, §3
The synergy of the two active substances MIT and BIT against the microorganism Klebsiella pneumoniae is shown as in example 1.
as §11

[9] = system: Pseudomonas putida; test: MIC and synergy of MIT and BIT in Müller-Hinton broth, 48 h; for growth of the microorganism: key: growth of the microorganism took place (symbol '+'); or not (symbol '−')
Protocol: as §2, §3
The synergy of the two active substances MIT and BIT against the microorganism Pseudomonas putida is shown as in Example 1.
(§12) The test batches again contained a Müller-Hinton broth as a nutrient medium. The cell density was 10^6 cells/mL. The incubation time was 48 h at 25° C. Each sample was incubated on an incubation shaker at 120 rpm.

[10] = system: Escherichia coli; test: MIC and synergy of MIT and BIT in Müller-Hinton broth, 72 h; conditions: for growth of the microorganism: BIT 0 ppm, MIT ppm = row head c0; for growth of the microorganism: key: growth of the microorganism took place (symbol '+'); or not (symbol '−')
Protocol: For this purpose, aqueous mixtures were produced with various concentrations of 2-methylisothiazolin-3-one (MIT) and 1,2-benzisothiazolin-3-one (BIT) and the activity of these mixtures on Escherichia coli (International Mycological Institute, Strain No. IMI 362054) was tested.
In addition to the biocide component and water, the aqueous mixtures contained a nutrient medium, namely a Müller-Hinton broth (commercial product “Merck No. 10393”). The cell density of Escherichia coli was 10^6 cells/mL. The incubation time was 72 h at 25° C. Each sample was incubated on an incubation shaker at 120 rpm.
as §2, §3
When the synergy index has the value 1, this means that there is an addition of the activity of the two biocides. When the synergy index has a value of less than 1, this means that a synergy of the two biocides exists.

[11] = system: Pseudomonas aeruginosa; test: MIC and synergy of MIT and BIT in Müller-Hinton broth, 48 h
Protocol: as §2, §3
The synergy of the two active substances MIT and BIT against the microorganism Pseudomonas aeruginosa is shown as in Example 1.
as §12

[12] = share of the BIT/MIT mixture at MIC, 96 h
[13] = MIT share of the BIT/MIT mixture at MIC, 72 h
[14] = MIT share of the BIT/MIT mixture at MIC, 48 h

With `CCCCNC(=O)OCC#CI` [IPBC, 3-iodo-2-propinyl-N-butyl carbamate] the “MIC at IPBC concentration Qb” value ([1]; IPBC share at the MIC, Penicillium funiculosum, 72 h) was 0.75 ppm, the Qb/QB ([1]; Penicillium funiculosum, 72 h) was 1.00 and the “Synergy index Qa/QA + Qb/QB” value ([1]; Penicillium funiculosum, 72 h) was 1.00. For the same compound, the “Total concentration MIT/BIT + IPBC” value ([1]; at the MIC, Penicillium funiculosum, 72 h) was 0.75 ppm, the MIC value ([1]; used alone, 72 h at 25° C.) was 0.75 ppm and the Qb/QB ([2]; Aspergillus niger, 72 h) was 1.00. For the same compound, the “Synergy index Qa/QA + Qb/QB” value ([2]; Aspergillus niger, 72 h) was 1.00, the “MIC at IPBC concentration Qb” value ([2]; IPBC share at the MIC, Aspergillus niger, 72 h) was 2.5 ppm and the “Total concentration BIT/MIT + IPBC Qa + Qb” value ([2]; at the MIC, Aspergillus niger, 72 h) was 2.5 ppm. It also gave an MIC value ([2]; used alone, 72 h at 25° C.) of 2.5 ppm.
For `Cn1sccc1=O` [MIT, 2-methylisothiazolin-3-one], the “Bacterial growth (7 days + 48 h after 4th inoculation)” value (“Bacterial growth” for short) ([3]; biocide 0.005% by wt) was “full bacterial growth was reached only after four inoculations and 6”, the “Bacterial growth” value ([3]; biocide 0.01% by wt) was 5 and the “Bacterial growth” value ([3]; biocide 0.015% by wt) was 5. The “Bacterial growth” value ([3]; biocide 0.02% by wt) was 4, the “Bacterial growth” value ([3]; biocide 0.03% by wt) was “no bacterial growth found even after four inoculations and 0” and the “MIC at Total concentration BIT + MIT Qa + Qb” value ([4]; 96 h) was 40 ppm. For the same compound, the Qb/QB ([4]; 96 h) was 1.00, the “Synergy index Qa/QA + Qb/QB” value ([4]; 96 h) was 1.00 and the “MIC at MIT concentration Qb” value [4, 12] was 40 ppm. The MIC value ([4]; used alone, 96 h at 25° C.) was 200 ppm, the “MIC at Total concentration BIT + MIT Qa + Qb” value ([5]; 96 h) was 100 ppm and the Qb/QB ([5]; 96 h) was 1.00. For the same compound, the “Synergy index Qa/QA + Qb/QB” value ([5]; 96 h) was 1.00, the “MIC at MIT concentration Qb” value [5, 12] was 100 ppm and the MIC value ([5]; used alone, 96 h at 25° C.) was 750 ppm. For the same compound, the “Bacterial growth” value ([6]; biocide 0.005% by wt) was 4, the “Bacterial growth” value ([6]; biocide 0.01% by wt) was 1 (minimal growth up to 10 colonies) and the “Bacterial growth” value ([6]; biocide 0.015% by wt) was 1 (minimal growth up to 10 colonies). The “Bacterial growth” value ([6]; biocide 0.02% by wt) was “prevented completely and 0”, the “Bacterial growth” value ([6]; biocide 0.03% by wt) was “prevented completely and 0” and the “MIC at Total concentration BIT + MIT Qa + Qb” value ([7]; 72 h) was 12.5 ppm. The Qb/QB ([7]; 72 h) was 1.00, the “Synergy index Qa/QA + Qb/QB” value ([7]; 72 h) was 1.00 and the “growth of the microorganism” value ([7]; 72 h, MIT 10 ppm) was “+”. The “growth of the microorganism” value ([7]; 72 h, MIT 15 ppm) was “−”, the “MIC at MIT concentration Qb” value [7, 13] was 12.5 ppm and the MIC value ([7]; used alone, 72 h at 25° C.) was 12.5 ppm. The “MIC at Total concentration BIT + MIT Qa + Qb” value ([8]; 72 h) was 20 ppm, the Qb/QB ([8]; 72 h) was 1.00 and the “Synergy index Qa/QA + Qb/QB” value ([8]; 72 h) was 1.00. For the same compound, the “growth of the microorganism” value ([8]; 72 h, MIT 12.5 ppm) was “+”, the “growth of the microorganism” value ([8]; 72 h, MIT 25 ppm) was “−” and the “MIC at MIT concentration Qb” value [8, 13] was 20 ppm. The MIC value ([8]; used alone, 72 h at 25° C.) was 20 ppm, the “MIC at Total concentration BIT + MIT Qa + Qb” value ([9]; 48 h) was 12.5 ppm and the Qb/QB ([9]; 48 h) was 1.00. For the same compound, the “Synergy index Qa/QA + Qb/QB” value ([9]; 48 h) was 1.00, the “growth of the microorganism” value ([9]; BIT 0 ppm, MIT ppm = row head c0, 48 h) was “+ and −” and the “MIC at MIT concentration Qb” value [9, 14] was 12.5 ppm. For the same compound, the MIC value ([9]; used alone, 48 h at 25° C.) was 12.5 ppm, the “MIC at Total concentration BIT + MIT Qa + Qb” value ([10]; 72 h) was 17.5 ppm and the Qb/QB ([10]; 72 h) was 1.00. For the same compound, the “Synergy index Qa/QA + Qb/QB” value ([10]; 72 h, method of Kull) was 1.00, the “growth of the microorganism” value ([10]; 72 h, MIT 10 ppm) was “+” and the “growth of the microorganism” value ([10]; 72 h, MIT 25 ppm) was “−”. For the same compound, the “MIC at MIT concentration Qb” value [10, 13] was 17.5 ppm, the MIC value ([10]; used alone, 72 h at 25° C.) was 17.5 ppm and the “MIC at Total concentration BIT + MIT Qa + Qb” value ([11]; 48 h) was 30 ppm. The Qb/QB ([11]; 48 h) was 1.00, the “Synergy index Qa/QA + Qb/QB” value ([11]; 48 h) was 1.00 and the “MIC at MIT concentration Qb” value [11, 14] was 30 ppm. The MIC value ([11]; used alone, 48 h at 25° C.) was 30 ppm.
